Series [1] in a line: Ethanol drinking paradigm, three-bottle choice (MC-100093 50 mg/kg vs ceftriaxone 200 mg/kg). It counts as in vivo, P rats. How it is done: P rats were received from Indiana University School of Medicine (Indianapolis, IN, USA), and were housed in a 21° C. on a 12/12 h light/dark cycle-maintained room where they had free access to water and food. All experimental procedures were approved by the Institutional Animal Care and Use Committee (IACUC) of The University of Toledo, in accordance with the guidelines governing the use of animals in research of the National Institutes of Health as described in the Guidefor the Care and Use of Laboratory Animals.
We used an ethanol drinking paradigm as described previously by Alhaddad, et al. (2014). Briefly, animals started the experimental drinking procedure at age of 90 days. The animals had five weeks of exposure to continuous three-bottle choice drinking, 0%, 15% and 30%, v/v ethanol in water, available concurrently. Daily measurement of ethanol intake was performed (g of ethanol intake/kg of body weight/day). We measured the baseline ethanol drinking by average the intake during the last three weeks. Three groups of P rats (n=8-9/group) exposed to the five weeks ethanol exposure. At week 6, rats in each group received daily intraperitoneal injection of either MC-100093 at dose of 50 mg/kg (Ethanol-MC group), Ceftriaxone at dose of 200 mg/kg (Ethanol-CEF group, which also serves as positive control), or equivolume of saline vehicle (Ethanol group) for five days. This paradigm results in pharmacologically relevant blood alcohol concentration (50-200 mg %). Following the criteria for the development of ethanol dependence, rats whose average ethanol intake <4 g/kg/day were excluded from the study. Beside the ethanol exposed groups, another group of P rats (n=8) exposed to only water and food throughout the exposure procedures (control group).
All statistical analyses were conducted with Graphpad Prism software, with p-values of 0.05 or less being statistically significant. We performed a two-way (mixed model) ANOVA followed by Bonferroni multiple comparison post-hoc test to analyze 24 h ethanol consumption, 24 h water consumption, and daily body weight. For the Western blot and oil red O staining analysis, we performed one-way ANOVA with Newman-Keuls as a post hoc multiple comparison test to measure differences between groups as a percentage (relative to control values).

Series [2] deals with mGluR5. Description: Western blot mGluR5 expression in NAc-core and NAc-shell. It counts as in vivo, P rats. The note with it: MC-100093 50 mg/kg or ceftriaxone 200 mg/kg i.p. 5 days. How it is done: (§1) We used micro-punch procedure to dissect the subregions of the NAc such as NAc-core and NAc-shell as well as the subregions of prefrontal cortex such as infralimbic (IL) and prelimbic (PL) from the brain on day 6 after the last injection day. P rats were removed from the cage and rapidly euthanized by CO2 inhalation followed by rapid decapitation with a guillotine. Brains were isolated and immediately frozen on dry ice and stored at −80° C. The stereotaxic coordinates provided by Paxinos and colleague's rat brain stereotactic atlas was used to isolate NAc-core and NAc-shell using a cryostat apparatus (−20° C.), which then kept at −80° C. for later western blot analyses.
(§2) Western Blot assay was performed to measure changes in the expression of GLT-1, xCT, mGluR1, mGluR5, PPAR-α, PPARγ, GAPDH and β-tubulin in the NAc-core and NAc-shell as described in previous publications. A lysis buffer containing protease and phosphatase inhibitors was used to generate a homogenate of liver, Nac-core, and Nac-shell samples. The amount of protein was quantified using a detergent compatible protein assay (Bio-Rad, Hercules, CA, USA) for each sample. Samples were mixed with laemmli dye and loaded with equal amounts on polyacrylamide gels (10%), which separated the proteins using electrophoresis. After that, polyvinylidene difluoride (PVDF) membranes were used to transfer the proteins electrophoretically from the gels. Membranes were incubated in 5% free-fat milk in Tris-buffered saline with Tween-20 (TBST) for 30-60 minutes at room temperature. Membranes were then incubated with appropriate primary antibodies overnight at 4° C.: rabbit anti-GLT-1 (1:5000, Abcam, ab41621), rabbit anti-xCT (1:2000, Abcam, ab175186), rabbit anti-mGluR1 (1:1000, Abcam, ab82211), rabbit anti-mGluR5 (1:1000, Abcam, ab76316), rabbit anti-PPAR-α (1:1000, Abcam, ab24509), and rabbit anti-PPARγ (1:1000, Abcam, ab209350). Mouse anti-β-tubulin (1:1000; BioLegend) was used as a loading control antibody for the brain samples and rabbit anti-GAPDH (1:5000; cell signaling) was used as a loading control antibody for the liver samples. Membranes were washed five times on the next day with TBST followed by incubation with appropriate secondary antibody (1:5000) for 90 minutes at room temperature. Chemiluminescent reagents (Super Signal West Pico, Pierce Inc.) were used to detect the proteins using a GeneSys imaging system to develop the digitized blot images. Water-control group data were represented as 100% and all other values were expressed relative to control group to detect changes in the expression of the protein of interest in the brain and liver samples.
(§3) All statistical analyses were conducted with Graphpad Prism software, with p-values of 0.05 or less being statistically significant. […]

For series [3] the following is noted: cited from earlier work.
Series [4] deals with mGluR1. The series can be described thus: Western blot mGluR1 expression in NAc-core and NAc-shell. Type of series: in vivo, P rats. Particulars: MC-100093 50 mg/kg or ceftriaxone 200 mg/kg i.p. 5 days; among all groups. How it is done:
as §1, §2, §3
(In general: In western blotting, separated proteins are transferred to a membrane and probed.)

Molecules are shown by their SMILES. “Also recorded” adds a separate entry of the source. Where two headings read alike, the source gives them in different places.

Regarding `C[C@@H](O)[C@H]1C(=O)N[C@@H]1[C@@H](C)C(=O)N1CCN(C)CC1` [MC-100093], the “Body weight (grams)” value in series [1] (MC-100093 50 mg/kg i.p. or ceftriaxone 200 mg/kg i.p. 5 days) is given as “Neither MC-100093 (50 mg/kg, i.p.) nor Ceftriaxone (200 mg/kg, i.p.) treatment has significant effect; also recorded: no significant effects”. In series [1] (MC-100093 50 mg/kg i.p. or ceftriaxone 200 mg/kg i.p. 5 days, vs Ethanol-Saline group (MC-100093: at day 5 only)), the “Water intake (mL/day)” value is “significant increase in water consumption”. For the same molecule, the “Ethanol consumption (g/kg of average body weight/24 hr)” value in series [1] (P rats after 5 wk ethanol, MC-100093 50 mg/kg i.p. or ceftriaxone 200 mg/kg i.p. daily 5 days, vs Ethanol-Saline group) is recorded as “significant decrease in ethanol consumption from day 1 through day 5; also recorded: significantly reduced ethanol consumption from day 2 through day 5; also recorded: attenuated ethanol drinking behavior; also recorded: attenuated moderately ethanol intake as compared to ceftriaxone”. In addition, the “Protein expression of mGluR5 in the NAc-core” value in series [2] (among all groups) is given as “non-significant difference; also recorded: no significant difference”. In addition, in series [2] (vs control or ethanol groups), the “Protein expression of mGluR5 in the NAc-shell” value was “no significant change in the expression of mGluR5; also recorded: significantly downregulated in ethanol group compared to control, Ethanol-MC (50 mg/kg), and Ethanol-CEF (200 mg/kg) groups; also recorded: normalizing levels of mGluR5”. Moreover, the Brain/plasma ratio in series [3] (after intraperitoneal (i.p) injection) is reported as 14%. Moreover, the “Oral bioavailability (in words)” value in series [3] (following oral administration) was “orally bioavailable; also recorded: high oral bioavailability; also recorded: some bioavailability”. Besides, the values for the In vivo half-life in series [3] (intraperitoneal route) and in series [3] (oral route) were 4.2 h and 5.26 h, respectively. In addition, the Oxidative metabolism result in series [3] (rat, in vivo) was “no oxidative metabolism”. Moreover, in series [3] (rats), the “Oral bioavailability (F)” value is reported as 28%. The “Protein expression of mGluR1 in the NAc-core” value in series [4] is reported as “non-significant difference; also recorded: no significant difference”. Further, in series [4], the “Protein expression of mGluR1 in the NAc-shell” value is reported as “non-significant differences; also recorded: no significant difference”.

The values above are taken from patent US20250057808A1, “COMPOSITION COMPRISING BETA LACTAM FOR TREATING ALCOHOL DEPENDENCE AND ALCOHOL ASSOCIATED DISEASES OR CONDITIONS” (Temple University of the Commonwealth System of Higher …, priority 2023, published 2025).
